Columns and labels:
platinum-resistant SCLC = settings: patients with platinum-resistant SCLC; cited from earlier work
SCLC cell lines = assay: Cisplatin CellTiter-Glo cell viability, IC50 compared between SCLC subtypes; assay type: cell-based
Protocol: Drug response data. With the exception of cisplatin (Allison Stewart et al., 2017; Gay et al., 2019), drug response data included publicly available data sets (Polley et al., 2016). For cisplatin, cell lines were plated at 2,000 cells per well in 96-well plates 24 hours prior to treatment with drug using standard cell culture conditions. Each line was treated, in triplicate, with cisplatin at starting concentration of 10 μmon followed by 1:3 serial dilutions and DMSO-only control. Following 120-hour incubations, cell viability was assessed using CellTiter-Glo Luminescent Cell Viability Assay (Promega). IC50 values were estimated using software program drexplorer with fitting of multiple dose-response models and selection of best model using the residual standard error.
While there are biological differences between each subtype, it not known to what extent these differences yield distinct responses to anti-cancer therapies. To investigate subtype-specific vulnerabilities, SCLC cell line in vitro drug response data for over 500 drugs were used (Gay, 2019; Polley et al., 2016). […] For each subtype, a drug or drug class that worked especially well was identified, often accompanied by differential expression of the drug target or putative predictive biomarker.

[1] = system: MDA-SC53 and MDA-SC68 CDX models; assay: Cisplatin treatment of CTC-derived xenograft (CDX) models; assay type: in vivo, mice
Text: Circulating-tumor cell derived xenograft model generation. Patients diagnosed with SCLC at the University of Texas MD Anderson Cancer Center were selected on the basis of extensive-stage disease irrespective of age, gender or other clinical criteria. These patients underwent informed consent to Institutional Review Board (IRB)-approved protocol LAB10-0442 (“Evaluation of blood-based test for the detection of circulating tumor cells and circulating proteins and microRNAs and molecular analysis for polymorphisms and mutations”) and blood was collected. Technical details are as previously described (Stewart et al., 2020b). One vial of blood was collected for isolation and banking of plasma and peripheral blood mononuclear cells for use as a normal control. […] Mice were monitored for formation of a flank tumor and were euthanized when tumor burden reached 1000-1500 mm^3. […]
Single-cell RNAseq. […] Cells were then stained for anti-human HLA A647 (Biolegend 311414), Calcein AM (C3100MP) and DAPI (Lifetech D1306, 1 μg/mL) and sorted by Fluorescence-Activated Cell sorting (FACS) to select only live, human cells for downstream single cell transcriptomic analyses. Sorted cells were washed once with 0.04% BSA in PBS and counted on Countess II automated cell counter (ThermoFisher). […]

relapsed SCLC = settings: single-agent, relapsed SCLC patients, KEYNOTE-158; cited from earlier work
DLL3 = biological target: T1, DLL3 (Homo sapiens, UniProt Q9NYJ7); settings: cited from earlier work
T1 construct: host or cells: SCLC tumours of patients in the clinical trial (endogenous DLL3)
T1 sequence (Q9NYJ7 27-618): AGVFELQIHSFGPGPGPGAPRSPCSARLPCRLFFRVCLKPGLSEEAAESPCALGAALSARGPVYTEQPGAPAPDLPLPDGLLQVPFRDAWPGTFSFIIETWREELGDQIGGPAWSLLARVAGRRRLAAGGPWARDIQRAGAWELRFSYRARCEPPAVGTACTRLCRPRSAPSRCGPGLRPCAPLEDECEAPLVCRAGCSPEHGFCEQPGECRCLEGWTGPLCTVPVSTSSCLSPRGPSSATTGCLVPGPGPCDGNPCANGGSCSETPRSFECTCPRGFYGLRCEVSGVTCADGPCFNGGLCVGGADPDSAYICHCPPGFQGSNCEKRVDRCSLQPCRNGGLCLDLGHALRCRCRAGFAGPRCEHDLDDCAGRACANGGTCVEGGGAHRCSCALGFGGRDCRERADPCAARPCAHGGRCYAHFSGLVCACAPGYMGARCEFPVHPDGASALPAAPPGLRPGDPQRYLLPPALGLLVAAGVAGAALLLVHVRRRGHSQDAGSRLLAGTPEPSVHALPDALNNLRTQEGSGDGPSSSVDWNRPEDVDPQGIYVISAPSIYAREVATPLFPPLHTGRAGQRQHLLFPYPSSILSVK

Molecule: nivolumab: anti-PD-1 antibody described in WO2006/121168
- overall survival benefit versus chemotherapy (platinum-resistant SCLC): preferential OS benefit

Molecule: N.N.[Cl][Pt][Cl] [cisplatin]
- cisplatin sensitivity of SCLC-A models (SCLC cell lines; SCLC-A): range of sensitivities
- cisplatin sensitivity of SCLC-I models (SCLC cell lines; SCLC-I): resistant
- cisplatin sensitivity of SCLC-N models (SCLC cell lines; SCLC-N): resistant
- cisplatin sensitivity of SCLC-P models (SCLC cell lines; SCLC-P, mean IC50 versus other subtypes, trend): most sensitive
- response of CDX model to cisplatin ([1]; MDA-SC68rel model, relapsed after in vivo cisplatin treatment): cisplatin-resistant
- response of CDX model to cisplatin ([1]; treatment-naive MDA-SC68 parental model): cisplatin-sensitive

Molecule: pembrolizumab: anti-PD-1 antibody described in WO2009/114335
- response rate (relapsed SCLC): 19%

B1: rovalpituzumab tesirine: ADC targeting the inhibitory Notch ligand Delta-like ligand 3 (DLL3) (conjugate, chains of the INN, looked up)
VH: QVQLVQSGAEVKKPGASVKVSCKASGYTFTNYGMNWVRQAPGQGLEWMGWINTYTGEPTYADDFKGRVTMTTDTSTSTAYMELRSLRSDDTAVYYCARIGDSSPSDYWGQGTLVTVSS
VL: EIVMTQSPATLSVSPGERATLSCKASQSVSNDVVWYQQKPGQAPRLLIYYASNRYTGIPARFSGSGSGTEFTLTISSLQSEDFAVYYCQQDYTSPWTFGQGTKLEIK
modifications: tesirine
- clinical activity (DLL3; Phase II clinical trial for SCLC): only modest activity
- toxicity (DLL3; Phase II clinical trial, of the conjugated cytotoxic molecule): unexpected toxicity

From US12637720B2, “Molecular subtyping of small cell lung cancer to predict therapeutic responses” (Board of Regents, The University of Texas System, priority 2019, dated 2026)
